Measured values: patent publication US5747484A, “Crystalline cepham acid addition salts and processes for their preparation” (Hoechst Aktiengesellschaft, priority 1994, dated 1998)
Counter-ions that a name gives are not always drawn.

Settings: bovine, in vivo, im, 5 mg/kg
Description: The terminal half-lives (t1/2) after single injection (i.m.) of 5 mg of betaine VI (n=2) per kg of body weight for cattle are summarized in Table 1 for compounds according to the invention. […] The known salts sulfate and dihydroiodide from DE 3 706 020 are used as a standard.

Structure (SMILES) | Terminal half-lives (t1/2)
CO/N=C(\C(=O)N[C@@H]1C(=O)N2C(C(=O)[O-])=C(C[n+]3cccc4c3CCCC4)CS[C@H]12)c1csc(N)n1 [Dihydroiodide, reference compound] | 4.19 h
CO/N=C(\C(=O)N[C@@H]1C(=O)N2C(C(=O)[O-])=C(C[n+]3cccc4c3CCCC4)CS[C@H]12)c1csc(N)n1 [Example 1, Cefquinome-6-hydroxy-1-naphthoate] | 9.20 h
CO/N=C(\C(=O)N[C@@H]1C(=O)N2C(C(=O)[O-])=C(C[n+]3cccc4c3CCCC4)CS[C@H]12)c1csc(N)n1 [Example 2] | 18.8 h
CO/N=C(\C(=O)N[C@@H]1C(=O)N2C(C(=O)[O-])=C(C[n+]3cccc4c3CCCC4)CS[C@H]12)c1csc(N)n1 [Example 6] | 5.87 h
CO/N=C(\C(=O)N[C@@H]1C(=O)N2C(C(=O)[O-])=C(C[n+]3cccc4c3CCCC4)CS[C@H]12)c1csc(N)n1 [Example 9] | 15.6 h
CO/N=C(\C(=O)N[C@@H]1C(=O)N2C(C(=O)[O-])=C(C[n+]3cccc4c3CCCC4)CS[C@H]12)c1csc(N)n1 [Example 11, cefquinome-2,4-dihydroxybenzoate] | 16.20 h
CO/N=C(\C(=O)N[C@@H]1C(=O)N2C(C(=O)[O-])=C(C[n+]3cccc4c3CCCC4)CS[C@H]12)c1csc(N)n1 [Example 12] | 15.20 h
CO/N=C(\C(=O)N[C@@H]1C(=O)N2C(C(=O)[O-])=C(C[n+]3cccc4c3CCCC4)CS[C@H]12)c1csc(N)n1 [Example 13] | 9.21 h
CO/N=C(\C(=O)N[C@@H]1C(=O)N2C(C(=O)[O-])=C(C[n+]3cccc4c3CCCC4)CS[C@H]12)c1csc(N)n1 [Example 15] | 11.1 h
CO/N=C(\C(=O)N[C@@H]1C(=O)N2C(C(=O)[O-])=C(C[n+]3cccc4c3CCCC4)CS[C@H]12)c1csc(N)n1 [Example 16] | 9.16 h
CO/N=C(\C(=O)N[C@@H]1C(=O)N2C(C(=O)[O-])=C(C[n+]3cccc4c3CCCC4)CS[C@H]12)c1csc(N)n1 [Example 17] | 17.8 h
CO/N=C(\C(=O)N[C@@H]1C(=O)N2C(C(=O)[O-])=C(C[n+]3cccc4c3CCCC4)CS[C@H]12)c1csc(N)n1 [Example 18] | 13.00 h
CO/N=C(\C(=O)N[C@@H]1C(=O)N2C(C(=O)[O-])=C(C[n+]3cccc4c3CCCC4)CS[C@H]12)c1csc(N)n1 [Example 19] | 7.07 h
CO/N=C(\C(=O)N[C@@H]1C(=O)N2C(C(=O)[O-])=C(C[n+]3cccc4c3CCCC4)CS[C@H]12)c1csc(N)n1 [Example 20] | 9.39 h
CO/N=C(\C(=O)N[C@@H]1C(=O)N2C(C(=O)[O-])=C(C[n+]3cccc4c3CCCC4)CS[C@H]12)c1csc(N)n1 [Example 21] | 9.96 h
CO/N=C(\C(=O)N[C@@H]1C(=O)N2C(C(=O)[O-])=C(C[n+]3cccc4c3CCCC4)CS[C@H]12)c1csc(N)n1 [Example 22] | 8.77 h
CO/N=C(\C(=O)N[C@@H]1C(=O)N2C(C(=O)[O-])=C(C[n+]3cccc4c3CCCC4)CS[C@H]12)c1csc(N)n1 [Example 23] | 12.70 h
CO/N=C(\C(=O)N[C@@H]1C(=O)N2C(C(=O)[O-])=C(C[n+]3cccc4c3CCCC4)CS[C@H]12)c1csc(N)n1 [Sulfate, cefquinome sulfate, reference compound] | 2.15 h
